Laboratory results: patent EP0426075A1, “Benzylpyrrolidine derivatives as dopamine agonists” (SYNTEX (U.S.A.) INC., priority 1989, dated 1991)

How the values were obtained:
[1] = test system: saline-loaded spontaneously hypertensive rat (SHR); experiment: Spontaneous Hypertensive Rat - diuretic activity, saline-loaded, oral; type: in vivo; settings: for Urine K^+ (mEq/sample) / Urine Na^+ (mEq/sample) / Urine Volume: n = 7, mean ± S.D.
Method: Additionally, these compounds were examined for diuretic activity for 6 hours following oral compound administration in the saline-loaded spontaneously hypertensive rat (SHR). Methods for this assay have been previously described (Rosenkranz, et al, Proc. West. Pharmacol. Soc. 28 :87, 1985). The diuretic and natriuretic effects elicited by these compounds were characterized by an immediate onset of action.
The compounds of this invention were examined for diuretic activity for 6 hours following oral compound administration in the saline-loaded spontaneously hypertensive rat (SHR). Methods for this assay have been previously described (Rosenkranz, et al, Proc. West. Pharmacol. Soc. 28 :87, 1985). The diuretic and natriuretic effects elicited by these compounds were characterized by an immediate onset of action.
Male spontaneously hypertensive SHR/NCrIBR rats weighing 320-430 gms were divided into four groups of seven animals. All animals were food- and water-deprived overnight. The following morning, each group of rats was hydrated with deionized water (20 ml/kg, po) forty-five minutes prior to the administration of vehicle or the test compounds.
Following vehicle or drug, the rats were placed in individual metabolic units. Fifteen minutes post-dose the animals were saline-loaded (30 ml/kg, po). Urine was collected at 1, 3 and 6 hour intervals post-saline- load. Urine volumes were measured and sodium and potassium levels were determined by flame photometry.
A two-way analysis of variance with time, treatment and their interaction was run as a repeated measures analysis. A secondary model of one-way analysis of variance (by time) was run using specified contrasts. The p-values for the contrasts were adjusted using Fisher's LSD strategy at each time point.

[2] = test system: DA1 receptor; experiment: Goldberg in situ renal arterial preparation (renal DA1 assay), intra-arterial injection; type: in vivo, dog; settings: for Relative Efficacy to DA1 Standard: optimal response of test compound divided by optimal response of dopamine; for ED50: renal blood flow increase, i.a. bolus into renal artery, anesthetized dog; for Relative Potency to DA1 Standard: standard (dopamine) ED50 divided by test compound ED50
Method: (§1) The compounds were subsequently tested following intra-arterial administration in an in situ renal and femoral arterial preparation in the dog, as developed by L.I. Goldberg, to test for DA1 and DA2 dopamine activity, respectively. Details of the methodology are provided in the European J. Pharmacol. 89 :137, 1983, as well as in Hypertension 6 :1-25, 1984.
as §1, with “compounds of this invention” for “compounds”, “were” for “were subsequently”, “Pharmacol. ,” for “Pharmacol.”, “Hypertension ,” for “Hypertension”, “1984. J. L. McNay, L. I. Goldberg JPET 151 :23-31, 1966.” for “1984.”
(§2) The compounds were injected directly into the renal or femoral artery for analysis of DA, or DA2 activity, respectively. […] The compounds were tested for relative activity in comparison to the standard DA, agonist, dopamine or the standard DA2 agonist, DPDA. Specific DA, or DA2 activity of the tested compound was verified by Sch 23390 or domperidone blockade.
Adult mongrel dogs of either sex (12-20 kg) were anesthetized with pentobarbital sodium (33 mg/kg, i.v.). The animals were intubated and ventilated with room air using a Harvard respirator.
as §1, with “compounds of this invention” for “compounds”, “were” for “were subsequently”, “Pharmacol. ,” for “Pharmacol.”, “Hypertension ,” for “Hypertension”, “1984. J. L. McNay, L. I. Goldberg JPET 151 :23-31, 1966” for “1984.”
as §2, with “of DA1” for “of DA,”, “standard DA1” for “standard DA,”
The abdominal aorta was catheterized with a Millar micro-tip (size: 5F) transducer via the right femoral artery for blood pressure monitoring. The right femoral vein was cannulated with PE-160 tubing for iv saline infusion, as well as supplemental pentobarbital administration. The left renal artery was isolated through a lateral abdominal incision. An electromagnetic flowprobe of the appropriate size (8-11 mm circ.) was placed around the artery and connected to a Carolina Medical electromagnetic flowmeter. Surface ECG leads were placed subcutaneously on the chest and limbs to monitor heart rate. A 25 gauge 3/4" needle bent 90°, 4 mm from the tip, was placed in the renal artery proximal to the probe and connected to an infusion pump delivering saline at a constant rate of 1 ml/min. Following a saline and 1µg norepinephrine (NE) challenge, both given in an injection volume of 0.2 ml, the animal was treated with a phenoxybenzamine, 0.5 mg/kg/min i.a., infusion for a duration of 10-20 minutes as necessary to achieve a complete blockade of the NE challenge. Blood pressure was maintained by supplemental saline infusion (10-20 ml/kg, iv). Bradykinin, a standard for nonspecific vasodilation, was given at 0.60 nmole doses, in 0.2 ml saline, i.a., prior to generating a dose response curve for dopamine in which 4-fold increasing doses, ranging from 3 to 48 nmoles, were injected i.a. in 0.2 ml of saline (i.a. bolus). Test compounds were injected similarly in 4-fold increasing doses up to a maximum of 3000 nmoles. Compounds were then repeated at their optimal dose following Sch 23390 pretreatment (0.05 - 0.10 mg/kg, iv).
Efficacy ratios were determined by division of the optimal response of the test compound by the optimal response of the standard agent.

[3] = po 3 mg/kg, cumulative time 1 hr
[4] = po 3 mg/kg, cumulative time 3 hr
[5] = po 3 mg/kg, cumulative time 6 hr
[6] = po 10 mg/kg, cumulative time 1 hr
[7] = po 10 mg/kg, cumulative time 3 hr
[8] = po 10 mg/kg, cumulative time 6 hr
[9] = po 30 mg/kg, cumulative time 1 hr
[10] = po 30 mg/kg, cumulative time 3 hr
[11] = po 30 mg/kg, cumulative time 6 hr

Row | SMILES | Urine K^+ (mEq/sample) [1, 3] [mEq/sample] | Urine Na^+ (mEq/sample) [1, 3] [mEq/sample] | Urine Volume [1, 3] [mL] | Urine K^+ (mEq/sample) [1, 4] [mEq/sample] | Urine Na^+ (mEq/sample) [1, 4] [mEq/sample] | Urine Volume [1, 4] [mL] | Urine K^+ (mEq/sample) [1, 5] [mEq/sample] | Urine Na^+ (mEq/sample) [1, 5] [mEq/sample] | Urine Volume [1, 5] [mL] | Urine K^+ (mEq/sample) [1, 6] [mEq/sample] | Urine Na^+ (mEq/sample) [1, 6] [mEq/sample] | Urine Volume [1, 6] [mL] | Urine K^+ (mEq/sample) [1, 7] [mEq/sample] | Urine Na^+ (mEq/sample) [1, 7] [mEq/sample] | Urine Volume [1, 7] [mL] | Urine K^+ (mEq/sample) [1, 8] [mEq/sample] | Urine Na^+ (mEq/sample) [1, 8] [mEq/sample] | Urine Volume [1, 8] [mL] | Urine K^+ (mEq/sample) [1, 9] [mEq/sample] | Urine Na^+ (mEq/sample) [1, 9] [mEq/sample] | other results
1 | Br.Br.CCCN(CCCCCCN1CCC[C@@H]1Cc1ccc(O)c(O)c1)CCc1ccc(O)cc1 [Test Compound 1, (R)-2-(3,4-dihydroxybenzyl)-1-[6-(N-(4-hydroxyphenethyl)-N-propylamino)hexyl]pyrrolidine dihydrobromide] | 0.03±0.04 | 0.02±0.02 | 4.6 ± 1.9 | 0.11±0.05 | 0.07±0.03 | 7.8 ± 1.4 | 0.20±0.07 | 0.25±0.10 | 9.4 ± 1.8 | 0.06±0.03 | 0.28±0.13 | 9.9 ± 3.6 | 0.16±0.08 | 0.51±0.22 | 11.4 ± 3.9 | 0.22±0.11 | 0.51±0.27 | 11.8 ± 3.9 | 0.07±0.02 | 0.61±0.16 | kaliuresis ([1]; 30 mg/kg, po, 1, 3, and 6 hour post-dose time points): significant kaliuresis; Urine Volume [1, 9]: 14.7 ± 2.3 mL; Urine K^+ (mEq/sample) [1, 10]: 0.24±0.05 mEq/sample; Urine Na^+ (mEq/sample) [1, 10]: 1.13±0.25 mEq/sample; Urine Volume [1, 10]: 18.6 ± 2.8 mL; Urine K^+ (mEq/sample) [1, 11]: 0.31±0.06 mEq/sample; Urine Na^+ (mEq/sample) [1, 11]: 1.31±0.27 mEq/sample; Urine Volume [1, 11]: 19.3 ± 2.7 mL; Relative Efficacy to DA1 Standard [2]: 1.10; ED50 [2]: 0.87 nmol; Relative Potency to DA1 Standard [2]: 6.44
2 | Br.Br.CCCN(CCCCCCN1CCC[C@@H]1Cc1ccc(O)c(O)c1)CCc1cccc(O)c1 [Test Compound 2, (R)-2-(3,4-dihydroxybenzyl)-1-[6-(N-(3-hydroxyphenethyl)-N-propylamino)hexyl]pyrrolidine dihydrobromide] | 0.02±0.01 | 0.00±0.00 | 5.2 ± 1.4 | 0.09±0.04 | 0.06±0.04 | 7.9 ± 0.7 | 0.17±0.05 | 0.19±0.07 | 9.1 ± 0.8 | 0.02±0.01 | 0.09±0.05 | 8.9 ± 1.6 | 0.10±0.06 | 0.26±0.12 | 11.2 ± 2.0 | 0.13±0.09 | 0.31±0.17 | 11.7 ± 2.4 | 0.03±0.02 | 0.16±0.05 | Urine Volume [1, 9]: 13.0 ± 2.2 mL; Urine K^+ (mEq/sample) [1, 10]: 0.13±0.07 mEq/sample; Urine Na^+ (mEq/sample) [1, 10]: 0.40±0.12 mEq/sample; Urine Volume [1, 10]: 15.7 ± 2.1 mL; Urine K^+ (mEq/sample) [1, 11]: 0.17±0.09 mEq/sample; Urine Na^+ (mEq/sample) [1, 11]: 1.45±0.12 mEq/sample; Urine Volume [1, 11]: 15.9 ± 2.1 mL; Relative Efficacy to DA1 Standard [2]: 0.93; ED50 [2]: 0.34 nmol; Relative Potency to DA1 Standard [2]: 17.47
